Experimental data published in PubChem BioAssay (NCI).
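In this assay, cells in 96-well plates receive the compound at five concentrations for 48 hours. Endpoints are linearly interpolated between the surrounding concentrations. The concentration for full growth arrest is given as TGI.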

Assays:
Assay in all cases: inhibition of tumour cell growth, NCI panel, 48 h
MALME-3M melanoma = test system: MALME-3M melanoma
ACHN renal = test system: ACHN renal
KM12 colon = test system: KM12 colon
IGROV1 ovarian = test system: IGROV1 ovarian
OVCAR-4 ovarian = test system: OVCAR-4 ovarian
HT29 colon = test system: HT29 colon
OVCAR-8 ovarian = test system: OVCAR-8 ovarian
K-562 leukemia = test system: K-562 leukemia
SK-OV-3 ovarian = test system: SK-OV-3 ovarian
OVCAR-3 ovarian = test system: OVCAR-3 ovarian
NCI-H460 lung = test system: NCI-H460 lung
DU-145 prostate = test system: DU-145 prostate
PC-3 prostate = test system: PC-3 prostate
NCI-H226 lung = test system: NCI-H226 lung
SNB-75 CNS = test system: SNB-75 CNS
RXF 393 renal = test system: RXF 393 renal
HOP-92 NSCLC = test system: HOP-92 NSCLC
COLO 205 colon = test system: COLO 205 colon
EKVX NSCLC = test system: EKVX NSCLC
M14 melanoma = test system: M14 melanoma
MDA-N = test system: MDA-N
UACC-62 melanoma = test system: UACC-62 melanoma
HL-60(TB) leukemia = test system: HL-60(TB) leukemia
SR leukemia = test system: SR leukemia
BT-549 breast = test system: BT-549 breast
MDA-MB-231 breast = test system: MDA-MB-231 breast
SK-MEL-2 melanoma = test system: SK-MEL-2 melanoma
A498 renal = test system: A498 renal
SNB-19 CNS = test system: SNB-19 CNS
LOX IMVI melanoma = test system: LOX IMVI melanoma
U251 CNS = test system: U251 CNS
SW-620 colon = test system: SW-620 colon
CAKI-1 renal = test system: CAKI-1 renal
SN12C renal = test system: SN12C renal
HCC-2998 colon = test system: HCC-2998 colon
UACC-257 melanoma = test system: UACC-257 melanoma
RPMI-8226 leukemia = test system: RPMI-8226 leukemia
SK-MEL-5 melanoma = test system: SK-MEL-5 melanoma
NCI-H23 lung = test system: NCI-H23 lung
OVCAR-5 ovarian = test system: OVCAR-5 ovarian

Work on Cc1ccc2[nH]c3c(c2c1)CCC/C3=N/N=C(N)N yielded a TGI (MALME-3M melanoma) of 5.45 µM, a TGI (ACHN renal) of 3.64 µM and a TGI (KM12 colon) of 3.16 µM. The TGI (IGROV1 ovarian) was 3.54 µM, the TGI (OVCAR-4 ovarian) was 11.4 µM and the TGI (HT29 colon) was 3.39 µM. It also gave a TGI (OVCAR-8 ovarian) of 4.49 µM, a TGI (K-562 leukemia) of 5 µM and a TGI (SK-OV-3 ovarian) of 38.3 µM. The TGI (OVCAR-3 ovarian) was 8.21 µM, the TGI (NCI-H460 lung) was 2.89 µM and the TGI (DU-145 prostate) was 3.34 µM. It also gave a TGI (PC-3 prostate) of 10.2 µM, a TGI (NCI-H226 lung) of 10.1 µM and a TGI (SNB-75 CNS) of 4.54 µM. For the same compound, the TGI (RXF 393 renal) was 3.95 µM, the TGI (HOP-92 NSCLC) was 6.5 µM and the TGI (COLO 205 colon) was 3.13 µM. The TGI (EKVX NSCLC) was 6.78 µM, the TGI (M14 melanoma) was 3.15 µM and the TGI (MDA-N) was 2.89 µM. It also gave a TGI (UACC-62 melanoma) of 4.73 µM, a TGI (HL-60(TB) leukemia) of over 100 µM and a TGI (SR leukemia) of 5.64 µM. It also gave a TGI (BT-549 breast) of 41.1 µM, a TGI (MDA-MB-231 breast) of 3.04 µM and a TGI (SK-MEL-2 melanoma) of 3.41 µM. It also gave a TGI (A498 renal) of 45.2 µM, a TGI (SNB-19 CNS) of 4.76 µM and a TGI (LOX IMVI melanoma) of 4.39 µM. It also gave a TGI (U251 CNS) of 4.72 µM, a TGI (SW-620 colon) of over 100 µM and a TGI (CAKI-1 renal) of 2.94 µM. For the same compound, the TGI (SN12C renal) was 3.05 µM, the TGI (HCC-2998 colon) was 3.3 µM and the TGI (UACC-257 melanoma) was 7.41 µM. The TGI (RPMI-8226 leukemia) was 5.12 µM, the TGI (SK-MEL-5 melanoma) was 3.4 µM and the TGI (NCI-H23 lung) was 9.97 µM. The TGI (OVCAR-5 ovarian) was 5.53 µM.
